Measured values taken from patent publication US20230364051A1, “FORMULATIONS AND METHODS FOR IMPROVING AVIAN HEALTH” (CORNELL UNIVERSITY, priority 2022, published 2023).
Marks after values point to notes of the source that are not given here.

What was measured:
[1] = tested on: glial cells; conditions: via ceruloplasmin and ferroportin-1; cited from earlier work
[2] = Blood hemoglobin (QuantiChrom Hemoglobin Assay) at hatch after intraamniotic administration; type: in vivo, Gallus gallus; conditions: for Average Hb: day 17, blood at hatch
Method: Cornish-cross fertile broiler eggs (Gallus gallus, n = 39) were obtained from a commercial hatchery (Moyer’s chicks, Quakertown, PA, USA). The eggs were incubated under optimal conditions at the Cornell University Animal Science Poultry Farm Incubator [18]. […] Each group was then injected with the specific solution (1 mL per egg) with a 21-gauge needle into the amniotic fluid. Treatments in powder form were separately diluted in DI H2O. […] After injection, the injection holes were sealed with cellophane tape and the eggs were placed in hatching baskets such that each treatment was equally represented at each incubator location. Immediately upon hatch (day 21), blood was taken for hemoglobin determination and all chicks were then euthanized by CO2 exposure. The small intestine, pectoral muscle, cecum, and liver were collected, immediately frozen in liquid nitrogen, and then stored in a -80° C. freezer until analysis.
Blood was collected using micro-hematocrit heparinized capillary tubes (Fisher Scientific, Waltham, MA, USA). Blood Hb concentrations were determined spectrophotometrically using the QuantiChromTM Hemoglobin Assay (DIHB-250, BioAssay Systems, Hayward, CA, USA) following the kit manufacturer’s instructions.

[3] = Body weight and cecum weight at hatch after intraamniotic administration; type: in vivo, Gallus gallus; conditions: for Average Body Weight / Average Cecum Weight: day 17, at hatch
Method: Cornish-cross fertile broiler eggs (Gallus gallus, n = 39) were obtained from a commercial hatchery (Moyer’s chicks, Quakertown, PA, USA). The eggs were incubated under optimal conditions at the Cornell University Animal Science Poultry Farm Incubator [18]. All animal protocols were approved by Cornell University Institutional Animal Care and Use committee (IACUC #2020-0077). At day 17 of embryonic incubation, eggs containing viable embryos were weighed and divided into 5 groups, with all treatment groups assigned eggs of similar weight frequency distribution. Each group was then injected with the specific solution (1 mL per egg) with a 21-gauge needle into the amniotic fluid. Treatments in powder form were separately diluted in DI H2O. Two treatment groups (1.25, 2.5 wt. %), two controls (H2O and non-injected), and a positive control (5 wt. % inulin) were administered. After injection, the injection holes were sealed with cellophane tape and the eggs were placed in hatching baskets such that each treatment was equally represented at each incubator location. Immediately upon hatch (day 21), blood was taken for hemoglobin determination and all chicks were then euthanized by CO2 exposure. The small intestine, pectoral muscle, cecum, and liver were collected, immediately frozen in liquid nitrogen, and then stored in a -80° C. freezer until analysis.

[4] = maternal intake perinatally and throughout pregnancy, mice; cited from earlier work
[5] = tested on: Hepcidin; assay: Liver gene expression by RT-qPCR: hepcidin; type: in vivo, Gallus gallus; conditions: genistein exposure vs no injection, p < 0.05
Method: (§1) Cornish-cross fertile broiler eggs (Gallus gallus, n = 39) were obtained from a commercial hatchery (Moyer’s chicks, Quakertown, PA, USA). The eggs were incubated under optimal conditions at the Cornell University Animal Science Poultry Farm Incubator [18]. All animal protocols were approved by Cornell University Institutional Animal Care and Use committee (IACUC #2020-0077). At day 17 of embryonic incubation, eggs containing viable embryos were weighed and divided into 5 groups, with all treatment groups assigned eggs of similar weight frequency distribution. Each group was then injected with the specific solution (1 mL per egg) with a 21-gauge needle into the amniotic fluid. Treatments in powder form were separately diluted in DI H2O. […]
(§2) Total RNA was extracted from 30 mg of the proximal duodenal (n=6) or liver tissues (n=6) using Qiagen RNeasy Mini Kit (Qiagen Inc., Valencia, CA) according to the manufacturer’s protocol. […] RNA was quantified by absorbance at 260-280 nm using a NanoDrop 2000 (ThermoFisher Scientific, Waltham, MA). […]
(§3) As previously described. cDNA was generated using a 20 uL reverse transcriptase (RT) reaction in a BioRad C1000 touch thermocycler using the Improm-II Reverse Transcriptase Kit (Catalog #A1250; Promega, Madison, WI, USA). […] Genomic DNA contamination was assessed using a RT-PCR assay for the reference of genes samples. […]

[6] = tested on: DMT1; assay: Duodenal gene expression by RT-qPCR: DMT1; type: in vivo, Gallus gallus; conditions: 1.25 wt. % genistein vs no injection and H2O controls, p < 0.05; duodenum
Method: as §1, §2, §3

[7] = tested on: DcytB; assay: Duodenal gene expression by RT-qPCR: DcytB; type: in vivo, Gallus gallus; conditions: genistein treatment groups vs no injection, H2O and inulin, p < 0.05; duodenum
Method: as §1, §2, §3

[8] = tested on: hepcidin; conditions: human hepatocytes; cited from earlier work
[9] = tested on: gut bacterial populations; conditions: mice fed a high fat diet; cited from earlier work
[10] = 1.25 wt. % genistein intraamniotic
[11] = 2.5 wt. % genistein intraamniotic

SMILES: O=c1c(-c2ccc(O)cc2)coc2cc(O)cc(O)c12 [Genistein, genistein]
- Fe export [1]: significantly increased
- Average Hb [2, 10]: 14.98 ± 0.45 ^a g/dL
- Blood hemoglobin (Hb) levels vs controls ([2]; 1.25 wt. % genistein vs No Injection, H2O and 5 wt. % inulin, p < 0.05): significantly elevated
- Average Hb [2, 11]: 14.23 ± 0.79 ^ab g/dL
- Blood hemoglobin vs controls ([2]; 2.5 wt. % genistein vs H2O and 5 wt. % inulin): significantly higher
- Blood hemoglobin vs control ([2]; 2.5 wt. % genistein vs No Injection): higher
- Average Body Weight [3, 10]: 45.83 ± 0.99 ^ab g
- Average Cecum Weight [3, 10]: 0.50 ± 0.04 ^ab g
- Average Body Weight [3, 11]: 47.69 ± 1.30 ^a g
- Average Cecum Weight [3, 11]: 0.44 ± 0.03 ^b g
- Body weight vs control ([3]; 2.5 wt. % genistein vs non-injected group, p < 0.05): significantly higher
- Cecum weight of no injection and H2O groups compared to treated group ([3]; 2.5 wt. % genistein, p < 0.05): significantly greater values
- Harmful effects of a high-fat fed diet in dams and offspring [4]: mitigated
- Gene expression of hepcidin [5]: significantly upregulated
- Gene expression of DMT1 [6]: downregulated
- Gene expression of DcytB [7]: significantly downregulated
- Hepcidin transcription levels and promoter activity [8]: increased
- Gut bacterial populations associated with decreasing levels of lipopolysaccharide [9]: increased
